Structures are written as SMILES.

The target of one test is T1, KRAS G12S (Homo sapiens, UniProt P01116, G12S).
T1 construct: made in house; host or cells: E. coli BL21 (DE3)
The experiment in a line: HTRF assay, interaction of GST-tagged K-Ras with His-tagged hSOS1 (KRAS G12S). The format is biochemical. The conditions noted are these: <500 nM, read-out: Inhibition of KRAS G12S (IC50). The essentials: (§1)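 GST-K-Ras (G12S or WT) with anti-GST-Eu donor mixed with His-hSOS1 and anti-6His-XL665 acceptor in ~5 mM HEPES pH 7.4, 150 mM NaCl, 1 mM DTT, 0.05% BSA, 0.0025% Igepal. After ~10 min or longer, HTRF 665/620 nm ratio read.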

In the next test the target is T2, KRAS WT (Homo sapiens, UniProt P01116).
T2 construct: made in house; host or cells: E. coli BL21 (DE3)
T2 sequence (P01116 1-188 isoform P01116-2): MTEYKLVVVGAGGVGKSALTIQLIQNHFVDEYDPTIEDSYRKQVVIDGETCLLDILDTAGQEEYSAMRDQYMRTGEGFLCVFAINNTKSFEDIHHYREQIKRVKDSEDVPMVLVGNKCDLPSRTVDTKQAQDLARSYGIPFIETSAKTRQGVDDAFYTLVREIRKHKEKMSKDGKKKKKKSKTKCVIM
Nature of the test: HTRF assay, interaction of GST-tagged K-Ras with His-tagged hSOS1 (KRAS wildtype). The format is biochemical. The conditions noted are these: <500 nM, read-out: Inhibition of KRAS WT (IC50). The gist of the method: as §1
(TR-FRET usually uses a lanthanide donor and a delayed reading to cut background.)

T1 sequence (P01116 1-188 isoform P01116-2 G12S): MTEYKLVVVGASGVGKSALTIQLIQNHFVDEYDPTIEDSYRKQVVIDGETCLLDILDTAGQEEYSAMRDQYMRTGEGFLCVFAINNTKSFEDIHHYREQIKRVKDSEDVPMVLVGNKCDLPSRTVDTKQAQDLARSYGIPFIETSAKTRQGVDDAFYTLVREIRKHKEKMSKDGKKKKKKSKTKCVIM

Turning to `N#Cc1c(N)sc2c(F)ccc(-c3c(Cl)c4c5c(nc(OC[C@@]67CCCN6C[C@H](F)C7)nc5c3F)N(CC3CN(C(=O)/C=C/C5COC5)C3)CCO4)c12` [Compound 475, 2-amino-4-(8-chloro-10-fluoro-2-(((2R,7aS)-2-fluorotetrahydro-1H-pyrrolizin-7a(5H)-yl)methoxy)-4-((1-((E)-3-(oxetan-3-yl)acryloyl)azetidin-3-yl)methyl)-5,6-dihydro-4H-[1,4]oxazepino[5,6,7-de]quinazolin-9-yl)-7-fluorobenzo[b] thiophene-3-carbonitrile], the IC50 at KRAS G12S and on KRAS WT was less than 500 nM in each case.

For `COCC1([C@@H]2[C@H](CN3CCOc4c(Cl)c(-c5ccc(F)c6sc(N)c(C#N)c56)c(F)c5nc(OC[C@@]67CCCN6C[C@H](F)C7)nc3c45)CN2C(=O)n2cnc(C)c2)CC1` [Compound 477, 2-amino-4-(8-chloro-10-fluoro-2-(((2R,7aS)-2-fluorotetrahydro-1H-pyrrolizin-7a(5H)-yl)methoxy)-4-(((2S,3R)-2-(1-(methoxymethyl)cyclopropyl)-1-(4-methyl-1H-imidazole-1-carbonyl)azetidin-3-yl)methyl)-5,6-dihydro-4H-[1,4]oxazepino[5,6,7-de]quinazolin-9-yl)-7-fluorobenzo [b]thiophene-3-carbonitrile], the IC50 on KRAS G12S and on KRAS WT was less than 500 nM in each case.

For the molecule `C[C@@H]1[C@H](N2CCCOc3c(Cl)c(-c4ccc(F)c5sc(N)c(C#N)c45)c(F)c4nc(OC[C@@]56CCCN5C[C@H](F)C6)nc2c34)CCN1C(=O)n1ccnc1` [Compound 481, 4-(4-((2R,3R)-1-(1H-imidazole-1-carbonyl)-2-methylpyrrolidin-3-yl)-9-chloro-11-fluoro-2-(((2R,7aS)-2-fluorotetrahydro-1H-pyrrolizin-7a(5H)-yl)methoxy)-4,5,6,7-tetrahydro-[1,5]oxazocino[4,3,2-de]quinazolin-10-yl)-2-amino-7-fluorobenzo[b]thiophene-3-carbonitrile], the concentration for half-maximal inhibition (IC50) at KRAS G12S and at KRAS WT was less than 500 nM each time.

With `CC#CC(=O)N1C[C@@H](CN2CCOc3c(Cl)c(-c4ccc(F)c5sc(N)c(C#N)c45)c(F)c4nc(OC[C@@]56CCCN5C[C@H](F)C6)nc2c34)[C@H]1C1(C)CC1` [Compound 484, 2-amino-4-(4-(((2S,3R)-1-(but-2-ynoyl)-2-(1-methylcyclopropyl)azetidin-3-yl)methyl)-8-chloro-10-fluoro-2-(((2R,7aS)-2-fluorotetrahydro-1H-pyrrolizin-7a(5H)-yl)methoxy)-5,6-dihydro-4H-[1,4]oxazepino [5,6,7-de]quinazolin-9-yl)-7-fluorobenzo[b]thiophene-3-carbonitrile], the IC50 at KRAS G12S and at KRAS WT was less than 500 nM in each case.

Turning to `Cc1cn(C(=O)N2CC[C@@H](N3CCOc4nc(-c5cc(N)c(F)c(C)c5C(F)(F)F)c(F)c5nc(OC[C@@]67CCCN6C[C@H](F)C7)nc3c45)[C@H]2C)c(C)n1` [Compound 487, ((2R,3R)-3-(5-(5-amino-4-fluoro-3-methyl-2-(trifluoromethyl)phenyl)-4-fluoro-2-(((2R,7aS)-2-fluorotetrahydro-1H-pyrrolizin-7a(5H)-yl)methoxy)-8,9-dihydro-10H-7-oxa-1,3,6,10-tetraazacyclohepta[de]naphthalen-10-yl)-2-methylpyrrolidin-1-yl)(2,4-dimethyl-1H-imidazol-1-yl) methanone], the 50% inhibitory concentration (IC50) on KRAS G12S and on KRAS WT was less than 500 nM each time.

Take `C=C(F)C(=O)N1CC(CN2CCOc3c(Cl)c(-c4ccc(F)c5sc(N)c(C#N)c45)c(F)c4nc(OC[C@@]56CCCN5C[C@H](F)C6)nc2c34)C1` [Compound 491, 2-amino-4-(8-chloro-10-fluoro-4-((1-(2-fluoroacryloyl)azetidin-3-yl)methyl)-2-(((2R,7aS)-2-fluorotetrahydro-1H-pyrrolizin-7a(5H)-yl)methoxy)-5,6-dihydro-4H-[1,4]oxazepino[5,6,7-de]quinazolin-9-yl)-7-fluorobenzo[b]thiophene-3-carbonitrile]: the IC50 on KRAS G12S and at KRAS WT was less than 500 nM each time.

With `CC(C)[C@@H]1[C@H](CN2CCOc3c(Cl)c(-c4ccc(F)c5sc(N)c(C#N)c45)c(F)c4nc(OC[C@@]56CCCN5C[C@H](F)C6)nc2c34)CN1C(=O)n1cnc(Cl)n1` [Compound 493, 2-amino-4-(8-chloro-4-(((2R,3R)-1-(3-chloro-1H-1,2,4-triazole-1-carbonyl)-2-isopropylazetidin-3-yl)methyl)-10-fluoro-2-(((2R,7aS)-2-fluorotetrahydro-1H-pyrrolizin-7a (5H)-yl)methoxy)-5,6-dihydro-4H-[1,4]oxazepino[5,6,7-de]quinazolin-9-yl)-7-fluorobenzo[b]thiophene-3-carbonitrile], the IC50 on KRAS G12S and on KRAS WT was less than 500 nM throughout.

Regarding `CC1([C@@H]2[C@H](CN3CCCOc4c(Cl)c(-c5ccc(F)c6sc(N)c(C#N)c56)c(F)c5nc(OC[C@@]67CCCN6C[C@H](F)C7)nc3c45)CN2C(=O)n2ccnc2)CC1` [Compound 494, 4-(4-(((2S,3R)-1-(1H-imidazole-1-carbonyl)-2-(1-methylcyclopropyl)azetidin-3-yl)methyl)-9-chloro-11-fluoro-2-(((2R,7aS)-2-fluorotetrahydro-1H-pyrrolizin-7a(5H)-yl)methoxy)-4,5,6,7-tetrahydro-[1,5]oxazocino [4,3,2-de]quinazolin-10-yl)-2-amino-7-fluorobenzo[b] thiophene-3-carbonitrile], the IC50 on KRAS G12S and on KRAS WT was less than 500 nM each time.

`C[C@H](O)[C@H]1COc2c(Cl)c(-c3ccc(F)c4sc(N)c(C#N)c34)c(F)c3nc(OC[C@@]45CCCN4C[C@H](F)C5)nc(c23)N1CC1CCCN1C(=O)n1ccnc1` (stereo partly drawn) [Compound 495, 4-((5R)-4-((1-(1H-imidazole-1-carbonyl)pyrrolidin-2-yl)methyl)-8-chloro-10-fluoro-2-(((2R,7aS)-2-fluorotetrahydro-1H-pyrrolizin-7a(5H)-yl)methoxy)-5-((S)-1-hydroxyethyl)-5,6-dihydro-4H-[1,4]oxazepino [5,6,7-de]quinazolin-9-yl)-2-amino-7-fluorobenzo[b] thiophene-3-carbonitrile]: the half-maximal inhibitory concentration (IC50) at KRAS G12S and on KRAS WT was less than 500 nM in each case.

The values are drawn from patent US12606572B2, “Substituted heterocycles and uses thereof” (Kumquat Biosciences Inc., priority 2023, dated 2026).
